As to `CN1CCOC(C2=C(C#N)C(c3cccc4nonc34)c3c[nH]nc3N2)C1` (stereo unspecified), the melting point (commonly the temperature, or range, at which the solid turns liquid) is 143 °C.

`COc1ccc(C(=O)Nc2ccc(C(=O)NCc3ccccc3)cc2)cc1C12CC3CC(CC(C3)C1)C2`: the melting point fell in the range of 279 to 280 °C.

In the case of `CC(=O)Oc1cc(C)cc(C2(CC#N)N=NC=C2c2cc(NCC(C)OC(C)=O)nc(-c3cccnc3)n2)c1` (stereo unspecified), the melting point was found to be 230 °C.

In turn, `Nc1nnc(C(F)(F)F)c2c1cc1cccc(CCCN3CC4CCC(CC4)C3)n12` returned a melting point of 252 to 253 °C.

The compound `Cc1cc(F)cc(Oc2ccc([C@@H]3CCCN4CCS(=O)(=O)N=C34)cc2)c1` displayed a melting point of 158 to 159 °C.

Compound `CCOC(=O)c1cc2c([nH]1)c(N(C)S(=O)(=O)c1cccs1)cn2Cc1ccccc1` displayed a melting point of 120 °C.

In turn, `CCc1ccc(C2(OC(C)=O)C(=O)c3ccccc3C2=O)c(OC(C)=O)c1` yielded a melting point of 136 to 137 °C.

In turn, `O=C1CCCc2c1ccn2S(=O)(=O)c1ccccc1` yielded a melting point of 108 to 110 °C.

Consider `Cc1cccc(NC(=O)OCCS(C)(=O)=O)c1CNc1cccn2c(C)c(C)nc12`, for which the melting point lay in the range of 161 to 162 °C.

As for `CC(C)(C)Sc1c(CC(C)(C)C(=O)O)n(Cc2ccc(Cl)cc2)c2ccc(OCc3cccnc3)cc12`, the melting point lay in the range of 206 to 208 °C.

`COC(=O)c1ccc(CN2N=C(c3ccc(OC)c(OC)c3)[C@@H]3CCCC[C@@H]3C2=O)cc1` (relative stereo): the melting point lay in the range of 90 to 92 °C.

Turning to `Clc1ccc(-c2cnccn2)cc1`, the melting point was in the range of 77 to 77.5 °C.

`COC(=O)C=Cc1cncn1Cc1ccccc1` gave a melting point of 137 to 139 °C.

The compound `CCCN1CCC23c4cccc(OC)c4OC2C2CCC3(C1)C(COC)C2` (stereo unspecified) returned a melting point of 130 to 131 °C.

Compound `Nc1nc(N)c(C(=O)n2ccnc2)nc1Cl` had a melting point of 232 to 234 °C.

Regarding `CC(=O)NCC1(c2ccccc2)CCN(CCC(c2ccccc2)(c2ccccc2)c2ccccc2)CC1`, the melting point lay in the range of 154 to 167 °C.

The compound `CC(=O)Oc1c(C)cc(Oc2ccc3nc(CO)n(C)c3n2)c(C)c1C` came in with a melting point of 179 to 180 °C.

Take `CSc1nc(N)cc(OCCOCP(=O)(O)O)n1`: the melting point was in the range of 210 to 211 °C.

On to `Cc1cccc(C)c1NC(=O)C(Cl)Br` (stereo unspecified), for which the melting point fell in the range of 148 to 149 °C.

As to `Cc1ccn2c(=O)c(CCN3CCN(c4ccc(Cl)cc4)CC3)c(C)nc2c1`, the melting point is 156 to 157 °C.

For `O=C(O)c1cccc(-c2ccc(F)c3cc(Cc4cccc(C(F)(F)F)c4)oc23)c1`, the melting point lay in the range of 172 to 173 °C.

As to `Nc1ccc(Oc2cc(C34CCCCC3C(=O)NC4=O)c(F)cc2Cl)cc1` (stereo unspecified), the melting point was in the range of 213 to 215 °C.

For the compound `CCCCOc1cc(CCC(=O)O)ccc1CCCc1ccc(OS(=O)(=O)CC)c(OC)c1`, the melting point came to 64 °C.

In turn, `O=C(O)Cc1c(Cl)nc(-c2ccc(O)cc2)n1Cc1ccccc1` gave a melting point of 140 to 145 °C.

The compound `Clc1ccc(N2CCN(Cc3cn4cc(Br)ccc4n3)CC2)c(Cl)c1` gave a melting point of 137 to 138 °C.

`Nc1cc(Br)nc(CO)c1` gave a melting point of 144 to 145 °C.

Regarding `CCCn1c(=O)c2[nH]c(-c3cc(C)n(CC(=O)Nc4ccc(C)cc4)n3)nc2n(CCC)c1=O`, the melting point was greater than 300 °C.

`CC(C)(C)OC(=O)Cc1nn(Cc2nc3cc(C(F)(F)F)ccc3s2)c(=O)c2cccnc12` came in with a melting point of 121 to 122 °C.

`COCc1cc(-c2csc(N)n2)on1` showed a melting point of 137 to 138 °C.

With `CCOC(=O)C(=CNc1ccc2nc(C)n(C)c2n1)C(=O)OCC`, the melting point lay within 128 to 130 °C.

For `CCOC(Cc1ccc(OCc2nc(C(C)(C)C)oc2C)c2ccsc12)C(=O)O` (stereo unspecified), the melting point lay within 179 to 180 °C.

`O=C(CC1CC1)N[C@H]1CC[C@H](CCN2CCC(c3cccc4c3CCO4)CC2)CC1` had a melting point of 189 °C.

As to `N#Cc1ccc(-c2nc(=O)c3ccccc3s2)cc1`, the melting point is 241 °C.

`Cc1cc2c(cc1C1=NNC(=O)CC1)NC(=O)CO2`: the melting point fell in the range of 255 to 257 °C.

As to `CC(C)(S)CNC(=O)/C(CCO)=C(\c1ccc(Cl)cc1)c1ccc(S(C)(=O)=O)cc1`, the melting point lay within 62 to 64 °C.

Take `Cc1c(Br)c(NC(=O)CC(C)(C)C)c(C)c2c1OCC2c1ccc(C(C)C)cc1` (stereo unspecified): the melting point was 174 to 175 °C.

The compound `Clc1ccc2nccc(Cl)c2c1` had a melting point of 101 to 104 °C.

With `O=C1CC(=O)N(Cc2ccccc2)[C@H](Cc2ccccc2)C1`, the melting point lay within 97 to 97.5 °C.

Regarding `O=P(O)(O)Cc1ccccc1-c1ccccc1`, the melting point was in the range of 168 to 169 °C.

Turning to `CP1(=O)c2ccccc2CN1c1ccc(Br)cc1` (stereo unspecified), the melting point was in the range of 135 to 136 °C.

Regarding `O=C(O)c1cn(-c2ccccc2)c2cc(-c3ccncc3)ccc2c1=O`, the melting point was greater than 325 °C.

With `ClC(Cl)(Cl)c1nncs1`, the melting point was 58 °C.

On to `COC(=O)CCCc1cc2nc(C(F)(F)F)ccc2n1S(=O)(=O)c1ccc2c(c1)OCCN2C`, for which the melting point was 118 °C.

On to `O=C(Oc1ccc(Oc2ccc(C(F)(F)F)cn2)cc1)N1CCN(c2cnccn2)CC1`, for which the melting point was in the range of 160 to 161 °C.

`Cc1cn(CC(=O)c2ccc(-c3ccc(N4C[C@H](Cn5ccnn5)OC4=O)cc3F)cn2)c(C)n1`: the melting point is 78 °C.

The compound `FC(F)(F)c1ccc2nc(N3CCN(c4ncccc4Cl)CC3)[nH]c2c1` returned a melting point of 208 to 210 °C.

With `OCCN(c1ccncc1F)n1ccc2ccccc21`, the melting point lay in the range of 133 to 135 °C.

Turning to `CC1Oc2c(F)cc(CN3CCN(c4ccc(C(=O)NC5CC5)cc4)CC3)cc2NC1=O` (stereo unspecified), the melting point was in the range of 108 to 110 °C.

`CN(CCOc1cc(-c2ccc(O)cc2)nn1C)CCc1ccc(Cl)cc1` yielded a melting point of 90 to 91 °C.

For `CC(C)CCOc1c(-c2ccc(S(N)(=O)=O)cc2)cnn(CC(F)(F)F)c1=O`, the melting point was in the range of 123 to 124 °C.

The compound `O=C(c1cccs1)c1cnn2c(-c3cccc(NC/C=C/c4ccccc4)c3)ccnc12` had a melting point of 123 to 125 °C.

`c1ccc(N2c3ccccc3CC2C2=NCCN2)cc1` (stereo unspecified) displayed a melting point of 141 to 144 °C.

On to `Cn1c(=O)[nH]c2sccc2c1=O`, for which the melting point was 263 to 265 °C.

Turning to `CCCC(=O)NN=C(C)c1ccncc1Cl`, the melting point was 104 °C.

For `Oc1cc(OCC(O)COc2ccccc2)ccc1C(=S)c1ccc(-c2ccccc2)cc1` (stereo unspecified), the melting point was 101 to 102 °C.

The compound `CC(=NNC(=O)c1ccccc1)c1ccccn1` showed a melting point of 152 °C.

Consider `OCc1cccnc1Nc1cccc(C(F)(F)F)c1`, for which the melting point is 102 °C.

Compound `CSc1c(C=O)c(=O)n(C)c(=O)n1C` returned a melting point of 104 °C.

Compound `CC(C)(C)OC(=O)N(c1ccccc1)S(=O)(=O)c1ccc2c(c1)CCC(C)(C)O2` had a melting point of 117 to 120 °C.

Compound `CCCCCCCc1ccc(-c2cnc(-c3ccc(OCCCCCC)c(F)c3)nc2)cc1` showed a melting point of 80.5 °C.

In turn, `CCC(CC)n1nc(C)c2c(Cl)nc(C)nc21` registered a melting point of 33 to 34 °C.

As to `Cc1nnc2ncc(-c3cccc(C(F)(F)F)c3)nn12`, the melting point lay within 265 to 268 °C.

Compound `COc1cccc(CCc2ccccc2C(=O)O)c1` had a melting point of 119 to 122 °C.

In the case of `CC1(C2CCCC2)Cc2cc(OCCCCCC(=O)O)c(Cl)c(Cl)c2C1=O` (stereo unspecified), the melting point was in the range of 127 to 129 °C.

In the case of `O=C(OCC1CCC(COC(=O)c2ccccc2)CC1)c1ccccc1` (stereo unspecified), the melting point was in the range of 111 to 113 °C.

`Cc1cc(C2C=CCC2)c(S(C)(=O)=O)cc1C(=O)N=C(N)N` (stereo unspecified) registered a melting point of 212 to 214 °C.

Consider `COc1ccc(-c2nnc(Cl)nc2-c2ccc(OC)cc2)cc1`, for which the melting point fell in the range of 130 to 132 °C.

On to `CCOC(=O)/C=C/c1cccc(C(=O)c2ccc(C(F)(F)F)cc2)n1`, for which the melting point lay in the range of 66 to 68 °C.

Compound `COC(CNC(=O)CN1C(=O)C(C)=C(C)C1=O)OC` returned a melting point of 99.4 to 99.9 °C.

Take `Oc1ccccc1Cc1cccc2[nH]ccc12`: the melting point came out at 139 °C.

As to `Cc1ncnc2c1ncn2[C@H](C)[C@](O)(Cn1cncn1)c1ccc(F)cc1F`, the melting point lay in the range of 200 to 201 °C.

Compound `COC(=N)NC(=O)Nc1ccc(Cl)cc1` registered a melting point of 115 to 117 °C.

For the compound `CN(C)C(=O)c1cc(C#N)cnc1Cl`, the melting point fell in the range of 148 to 153 °C.

With `CCC(=O)NCCC1CCc2c(F)cc3nn(C)cc3c21` (stereo unspecified), the melting point was 117 to 119 °C.

As to `COCc1cc([N+](=O)[O-])ccc1N1C(=O)c2ccc(Cl)cc2C1=O`, the melting point fell in the range of 125 to 128 °C.

In turn, `CC(=O)OC1CC2(C)C(CCC23OCCO3)C2CC=C3CC(O)CCC3(C)C12` (stereo unspecified) showed a melting point of 125 to 126 °C.

Take `COc1ccc(C(=O)c2ccccc2)c(S)c1`: the melting point is 74 to 76 °C.

As for `COc1cc(C2=Nc3ccc(N4CCCC4)cc3C(=O)C2)ccc1O`, the melting point is 310 to 312 °C.

Turning to `Cc1oc(-c2ccccc2)nc1COc1cccc(COc2cncc(CC(=O)O)c2)c1`, the melting point was in the range of 158 to 159 °C.

On to `N#CC1=Cc2ccccc2N(C(N)=O)c2ccccc21`, for which the melting point is 143 to 145 °C.

`CCC(=Cc1ccc(C(=O)O)cc1Cl)[N+](=O)[O-]` came in with a melting point of 179 to 180 °C.

On to `C=CCOc1ccc2ccc(C(=O)OCC)cc2c1`, for which the melting point was 60 to 61 °C.

Compound `COC(OC)c1cc(-n2c(=O)cc(C(F)(F)F)n(C)c2=O)ccc1Cl` had a melting point of 92 to 94 °C.

In turn, `COc1ccc(C2(C#N)CCC(=O)C(C(N)=O)C2)cc1OCC1CC1` (stereo unspecified) displayed a melting point of 154 to 155 °C.

Regarding `Nc1ccc(-c2cnn3c(O)ncnc23)cc1`, the melting point was greater than 300 °C.

The compound `Clc1ccc2c(c1)Nc1cc(Cl)ccc1OCO2` displayed a melting point of 194 to 196 °C.

In the case of `Cc1cccc(NC(=O)NC2N=C(C3CCCC3)c3ccccc3N(CC(=O)N3CC4CCC(CC4)C3)C2=O)c1` (racemic), the melting point was in the range of 132 to 134 °C.

Turning to `Cn1nc(-c2c(F)cccc2Cl)nc1-c1ccc(Cl)nc1`, the melting point lay in the range of 118 to 120 °C.

On to `CN(N=Cc1ccccc1C(=O)O)c1nc2ccccc2o1`, for which the melting point was in the range of 253 to 255 °C.

On to `CC(C)(CCCCC=CCCCCC(C)(C)CC(=O)O)CC(=O)O`, for which the melting point lay within 100 to 101 °C.

`CC(C)C(=O)Nc1ccc(-c2c[nH]c(=O)cn2)cc1` displayed a melting point of 280 °C.

Values taken from a melting point compilation (Tetko et al.; mined from patent text by program, amines drawn as free bases though some values may be those of a salt).
